From US20030187044A1, “Medicament” (SmithKline Beecham p.l.c., priority 1990, published 2003) come the findings set out here.

In general, melting point refers to the temperature, or range, at which the solid turns liquid.

The structures appear in SMILES notation.

Take `CCCCc1nc2cc(Br)cc(C(=O)O)c2n1Cc1ccccc1Cl` [Example 4, 5-Bromo-2-n-butyl-1-(2-chlorophenyl)methyl-1H -benzimidazole-7-carboxylic Acid]: the melting point lay within 254 to 255 °C.

`CCCSc1ncc(C[C@H](NC(=O)CCC)C(=O)O)n1Cc1ccccc1Cl` [Example 1, 3-[(2-Chlorophenyl)methyl]-2-propylthio-N -butyrylhistidine] showed a melting point of 178 to 181 °C.
